Data reported in patent publication US6407139B1, “Neovascularization inhibitor” (Kissei Pharmaceutical Co., Ltd., priority 1996, dated 2002).

What was measured:
Type in all cases: cell-based
[1] = system: human microvascular endothelial cells; test: Tube formation of human microvascular endothelial cells on matrigel (length of tube structures); conditions: 18 hours incubation, various concentrations, FIG. 4
Method: (§1) According to the method of Example 1 (1), human microvascular endothelial cells were cultured to prepare a cell suspension. Number of viable cells was counted under a phase-contrast microscopy using a hemocytometer and cell concentration was adjusted to 4×10^4 cells/ml.
Tranilast was added to 1% aqueous sodium bicarbonate solution to prepare 1.0% solution and dissolved by warming at 70° C. The solution was sterilized with millipore filter and diluted with MVE medium to a prescribed final concentration.
An aliquot (0.25 ml) of matrigel (10 mg/ml, Becton Dickinson Labware) was added to a 24-well culture plate (Corning) and was then allowed to solidify by incubation at 37° C. for 1 hour. Suspension (0.25 ml) of human microvascular endothelial cells (4×10^4 cells) and MVE medium (0.25 ml) containing various concentrations of Tranilast were added onto the gel. After 18 hours incubation at 37° C., 5 random fields of one well were photographed at ×40 magnification using a phase-contrast microscopy. The lengths of the tube structures were measured and the mean value was calculated.

[2] = system: human microvascular endothelial cells; test: Inhibition of chemotaxis of human microvascular endothelial cells to VEGF; conditions: chemotaxis to 100 ng/ml VEGF, 5 hours, 96-well micro chemotaxis chamber, FIG. 2
Method: According to the method of Example 1 (1), human microvascular endothelial cells were cultured to prepare a cell suspension. Number of viable cells was counted under a phase-contrast microscopy using a hemocytometer and cell concentration was adjusted to 2×10^4 cells/ml.
Tranilast was added to 1% aqueous sodium bicarbonate solution to prepare 0.55% solution and dissolved by warming at 70° C. The solution was sterilized with millipore filter and diluted with DMEM+Ham (1:1) medium to a prescribed final concentration.
Chemotaxis of human dermal microvascular endothelial cells (prepared in (1)) to vascular endothelial growth factor (VEGF) was studied using a 96-well micro chemotaxis chamber (Neuro Probe Inc.). An aliquot (32 μl) of DMEM+Ham (1:1) medium containing 100 ng/ml of VEGF, 0.1% bovine serum and various concentrations of Tranilast was added to the lower cavity of the chemotaxis chamber. An aliquot (50 μl) of medium containing cell suspension and Tranilast was added to the upper cavity of the chamber. Polycarbonate filter (10 μm thickness with 8 μm pore size; Neuro Probe Inc.) coated with type-1 collagen was used for the chemotaxis membrane. […] Number of migrated cells was counted in 5 random fields at ×400 magnification under a phase-contrast microscopy and mean chemotaxis cell number was calculated.
(§2) Mean and standard variation value of each group were calculated. […]

[3] = system: human microvascular endothelial cells; test: Inhibition of proliferation of human microvascular endothelial cells; conditions: normal human dermal microvascular endothelial cells, 2 days incubation with various concentrations, FIG. 1
Method: Normal human dermal microvascular endothelial cells (Cell Systems Corporation) were subcultured in a medium (MVE medium, Cell Systems Corporation) for endothelial cell culture and used for the study. At the logarithmic growth phase, the medium was aspirated and cells were washed with phosphate-buffered saline (PBS(−)) which was added gentlely. Then, the PBS(−) was aspirated, an aliquot of 0.25% trypsin solution containing 0.02% EDTA was added to the culture plate, and the morphology of cells was observed under a phase-contrast microscopy. When cells were going to be round, an equal value of MVE medium was added to the trypsin solution to stop the action of trypsin. Attached cells were harvested from the plate by pipetting the medium using a slender pasture pipette. […] Number of viable cells in an aliquot of the suspension was counted under a phase-contrast microscopy using a hemocytometer. […]
Cell suspension (1 ml) was added to collagen-coated 6-well plate(Toyobo Engineering Co., Ltd.) and cultured at 37° C. under a humidified atmosphere of 5% CO2 in air. […] After harvesting cells from the plate by pipetting using a pasture pipete, number of viable cells was counted using a hemocytometer.
as §2

[4] = system: human microvascular endothelial cells; test: Tube formation of human microvascular endothelial cells on matrigel (number of formed network); conditions: 18 hours incubation, various concentrations, FIG. 3
Method: as §1
Tranilast was added to 1% aqueous sodium bicarbonate solution to prepare 0.5% solution and dissolved by warming at 70° C. The solution was sterilized with millipore filter and diluted with MVE medium to a prescribed final concentration.
An aliquot (0.25 ml) of matrigel (10 mg/ml, Becton Dickinson Labware) was added to a 24-well culture plate (Corning) and was then allowed to solidify by incubation at 37° C. for 1 hour. Suspension (0.25 ml) of human microvascular endothelial cells (4×10^4 cells) and MVE medium (0.25 ml) containing various concentrations of Tranilast were added onto the gel.

SMILES: COc1ccc(/C=C/C(=O)Nc2ccccc2C(=O)O)cc1OC [Tranilast, N-(3,4-Dimethoxycinnamoyl)anthranilic acid]
- length of the tube structure (tube formation) [1]: significantly reduced in a concentration-dependent manner
- chemotaxis of human microvascular endothelial cells (number of migrated cells) [2]: significantly suppressed
- proliferation of human microvascular endothelial cells (number of viable cells) [3]: significantly suppressed
- number of the formed network (tube formation) [4]: significantly reduced in a concentration-dependent manner
